Measurements as given in patent publication US8841296B2, “Substituted 1, 4-dioxa-8-azaspiro[4,5]decanes useful as fungicides and a process for the preparation thereof” (Council of Scientific and Industrial Research, Anusandhan …, priority 2009, dated 2014).

Legend:
grape downy mildew = assay: Field experiment against grape downy mildew; assay type: in vivo, grapevine
Description: A field experiment was conducted on pruned grapevine, in a randomized block design with ten treatments (Table No. 3) and three replications. Two sprays were given at an interval of 6 days starting at 28 days after pruning. The plot size was ten vines per treatment/replication. The spraying was done by Knapsack sprayer using 1000 L spray volume/hectare. […] Based on the observations, percent disease incidence was worked out. The data was subjected to statistical analysis.

Fusarium oxysporum = assay: Growth inhibition plate assay, F. oxysporum; assay type: cell-based; details: ND = Not Detectable; for inhibition at 25 ppm: Fusarium oxysporum, read-out: Plate assay inhibition, P4 F. oxysporum
Pythium aphanidermatum = assay: Growth inhibition plate assay, P. aphanidermatum; assay type: cell-based; details: ND = Not Detectable, read-out: Plate assay inhibition, P6 P. aphanidermatum
Rhizoctonia solani = assay: Growth inhibition plate assay, R. solani; assay type: cell-based; details: ND = Not Detectable, read-out: Plate assay inhibition, P1 R. solani
Drechslera oryzae = assay: Growth inhibition plate assay, D. oryzae; assay type: cell-based; details: ND = Not Detectable; for inhibition at 25 ppm: Bipolaris oryzae, read-out: Plate assay inhibition, P3 D. oryzae, 25 ppm
Pyrricularia oryzae = assay: microbe, parasite or virus in culture; assay type: cell-based; details: ND = Not Detectable; for inhibition at 25 ppm: Pyricularia oryzae, read-out: Plate assay inhibition, P5 P. oryzae, 25 ppm
grape powdery mildew = assay: Field experiment against grape powdery mildew; assay type: in vivo, grapevine; details: for PDI on Bunches 11 DAIIS / % Disease Control (11 DAIIS): 11 days after 2nd spray; for % Disease Control (11 DAIIS) / % Disease Control (15 DAIIS): over untreated check; for PDI on Bunches 15 DAIIS / % Disease Control (15 DAIIS): 15 days after 2nd spray
Description: A field experiment was conducted on pruned grapevine, in a randomized block design with ten treatments (Table No 1) and three replications. Two sprays were given at an interval of 10 days. The plot size was eight vines per treatment/replication. The spraying was done by Knapsack sprayer using 850 L spray volume/hectare. […] Based on the observations percent incidence was worked out.

Colletotrichum capsici = assay: Growth inhibition plate assay, C. capsici; assay type: cell-based; details: ND = Not Detectable; for inhibition at 25 ppm: Colletotrichum truncatum, read-out: Plate assay inhibition, P2 C. capsici
[1] = system: plant pathogenic fungi (all the test pathogens); assay type: cell-based
rose powdery mildew = assay: Field experiment against rose powdery mildew; assay type: in vivo; details: 4 days after spray; for Rose PM % Control: over untreated check
Text: Two sprays were given at an interval of 4 days. The spraying was done by Foot operated sprayer using 1200 L spray volume/hectare. […] Based on the observations percent incidence was worked out. The data was subjected to statistical analysis.

SMILES: COc1ccc(C(=CC(=O)N2CCOCC2)c2ccc(Cl)cc2)cc1OC [Dimethomorph, reference compound]
- Grape Downy mildew incidence 7 DAIIS (grape downy mildew; 50 WP @ 500 g a.i./ha, 7 days after 2nd spray): 2.39%
- Grape Downy mildew incidence 10 DAIIS (grape downy mildew; 50 WP @ 500 g a.i./ha, 10 days after 2nd spray): 2.42%
- % Control (7 DAIIS) (grape downy mildew; 500 g/ha, 168 h): 85.81%
- % Control (10 DAIIS) (grape downy mildew; 500 g/ha, 240 h): 89.37%

SMILES: Fc1ccc(Cl)cc1NCC1COC2(CCN(Cc3cnc(Cl)s3)CC2)O1 (centres unmarked) [Compound 8, N-(5-chloro-2-fluorophenyl)-N-{8-(2-chloro-5-thiazolyl)methyl-1,4-dioxa-8-aza-spiro[4,5]dec-2-yl}methanamine]
- inhibition at 25 ppm (Fusarium oxysporum): 20 to 30%
- inhibition at 25 ppm (Pythium aphanidermatum): 50 to 60%

SMILES: c1ccc(CCN2CCC3(CC2)OCC(CN2CCOCC2)O3)cc1 (centres unmarked) [Compound 3, 2-(morpholin-4-yl)methyl-8-phenethyl-1,4-dioxa-8-azaspiro[4,5]decane]
- inhibition at 25 ppm (Rhizoctonia solani): 70 to 80%
- inhibition at 25 ppm (Drechslera oryzae): 60 to 70%
- inhibition at 25 ppm (Fusarium oxysporum): 70 to 80%
- inhibition at 25 ppm (Pyrricularia oryzae): 40 to 50%

SMILES: CO/N=C(/C(=O)OC)c1ccccc1COc1ccccc1C [Kresoxim methyl, reference compound]
- PDI on Bunches 11 DAIIS (grape powdery mildew; 50 SC 425 g a.i./ha): 5.5%
- % Disease Control (11 DAIIS) (grape powdery mildew; 50 SC 425 g a.i./ha): 81.61%
- PDI on Bunches 15 DAIIS (grape powdery mildew; 50 SC 425 g a.i./ha): 3.55%
- % Disease Control (15 DAIIS) (grape powdery mildew; 50 SC 425 g a.i./ha): 86.41%

SMILES: c1ccc(CCN2CCC3(CC2)OCC(CSc2ccccc2)O3)cc1 (centres unmarked) [Compound 6, 8-phenethyl-2-phenylsulphanylmethyl-1,4-dioxa-8-azaspiro[4,5]decane]
- inhibition at 25 ppm (Rhizoctonia solani): 90 to 100%
- Plate assay inhibition, P2 C. capsici (Colletotrichum capsici; 25 ppm, listed as C6): 60-70%
- inhibition at 25 ppm (Colletotrichum capsici): 60 to 90%
- Plate assay inhibition, P3 D. oryzae (Drechslera oryzae; 25 ppm, listed as C6): 70-80%
- inhibition at 25 ppm (Drechslera oryzae): 60 to 90%
- Plate assay inhibition, P4 F. oxysporum (Fusarium oxysporum; 25 ppm, listed as C6): 70-80%
- inhibition at 25 ppm (Fusarium oxysporum): 60 to 90%
- Plate assay inhibition, P5 P. oryzae (Pyrricularia oryzae; 25 ppm, listed as C6): 80-90%
- inhibition at 25 ppm (Pyrricularia oryzae): 60 to 90%
- inhibition at 25 ppm (Pythium aphanidermatum): 50 to 60%
- fungicidal activity against plant pathogenic fungi ([1]; result in words): active against all pathogens
- PDI on Bunches 11 DAIIS (grape powdery mildew; 20% EC @ 340 g a.i./ha): 11.89%
- % Disease Control (11 DAIIS) (grape powdery mildew; 20% EC @ 340 g a.i./ha): 60.24%
- PDI on Bunches 15 DAIIS (grape powdery mildew; 20% EC @ 340 g a.i./ha): 10.6%
- % Disease Control (15 DAIIS) (grape powdery mildew; 20% EC @ 340 g a.i./ha): 59.43%
- % Disease Control (11 DAIIS) (grape powdery mildew; 20% EC @ 510 g a.i./ha): 66.26%
- PDI on Bunches 15 DAIIS (grape powdery mildew; 20% EC @ 510 g a.i./ha): 9.1%
- % Disease Control (15 DAIIS) (grape powdery mildew; 20% EC @ 510 g a.i./ha): 65.17%
- % Disease Control (11 DAIIS) (grape powdery mildew; 20% EC @ 680 g a.i./ha): 69.6%
- % Disease Control (15 DAIIS) (grape powdery mildew; 20% EC @ 680 g a.i./ha): 70.72%
- Grape Downy mildew incidence 7 DAIIS (grape downy mildew; 20% EC @ 400 g a.i./ha, 7 days after 2nd spray): 16.14%
- % Control (7 DAIIS) (grape downy mildew; 20% EC @ 400 g a.i./ha, 7 days after 2nd spray, over untreated check): 4.21%
- Grape Downy mildew incidence 10 DAIIS (grape downy mildew; 20% EC @ 400 g a.i./ha, 10 days after 2nd spray): 24.88%
- % Control (10 DAIIS) (grape downy mildew; 20% EC @ 400 g a.i./ha, 10 days after 2nd spray, over untreated check): 0%
- Grape Downy mildew incidence 7 DAIIS (grape downy mildew; 20% EC @ 800 g a.i./ha, 7 days after 2nd spray): 16.91%
- % Control (7 DAIIS) (grape downy mildew; 20% EC @ 800 g a.i./ha, 7 days after 2nd spray, over untreated check): 0%
- Grape Downy mildew incidence 10 DAIIS (grape downy mildew; 20% EC @ 800 g a.i./ha, 10 days after 2nd spray): 17.7%
- % Control (10 DAIIS) (grape downy mildew; 20% EC @ 800 g a.i./ha, 10 days after 2nd spray, over untreated check): 22.3%
- Rose PM % incidence 4 DAS (rose powdery mildew; 20% EC @ 240 g a.i./ha): 38.42%
- Rose PM % Control (rose powdery mildew; 20% EC @ 240 g a.i./ha): 25.44%
- Rose PM % incidence 4 DAS (rose powdery mildew; 20% EC @ 480 g a.i./ha): 29.45%
- Rose PM % Control (rose powdery mildew; 20% EC @ 480 g a.i./ha): 42.84%
- Rose PM % incidence 4 DAS (rose powdery mildew; 20% EC @ 720 g a.i./ha): 23.21%
- Rose PM % Control (rose powdery mildew; 20% EC @ 720 g a.i./ha): 54.95%

SMILES: CCCCC(O)(Cn1cncn1)c1ccc(Cl)cc1Cl (centres unmarked) [Hexaconazole, reference compound]
- PDI on Bunches 11 DAIIS (grape powdery mildew; 5 E @ 42.50 g a.i./ha): 8.59%
- % Disease Control (11 DAIIS) (grape powdery mildew; 5 E @ 42.50 g a.i./ha): 71.28%
- PDI on Bunches 15 DAIIS (grape powdery mildew; 5 E @ 42.50 g a.i./ha): 4.81%
- % Disease Control (15 DAIIS) (grape powdery mildew; 5 E @ 42.50 g a.i./ha): 81.59%

SMILES: CO/C=C(/C(=O)OC)c1ccccc1Oc1cc(Oc2ccccc2C#N)ncn1 [Azoxystrobin, reference compound]
- PDI on Bunches 11 DAIIS (grape powdery mildew; 25 SC @ 212 g a.i./ha): 8.68%
- % Disease Control (11 DAIIS) (grape powdery mildew; 25 SC @ 212 g a.i./ha): 70.97%
- PDI on Bunches 15 DAIIS (grape powdery mildew; 25 SC @ 212 g a.i./ha): 5.92%
- % Disease Control (15 DAIIS) (grape powdery mildew; 25 SC @ 212 g a.i./ha): 77.34%
- Grape Downy mildew incidence 7 DAIIS (grape downy mildew; 23 SC @ 230 g a.i./ha, 7 days after 2nd spray): 3.32%
- % Control (7 DAIIS) (grape downy mildew; 23 SC @ 230 g a.i./ha, 7 days after 2nd spray, over untreated check): 80.29%
- Grape Downy mildew incidence 10 DAIIS (grape downy mildew; 23 SC @ 230 g a.i./ha, 10 days after 2nd spray): 2.7%
- % Control (10 DAIIS) (grape downy mildew; 23 SC @ 230 g a.i./ha, 10 days after 2nd spray, over untreated check): 88.14%

SMILES: Clc1ncc(COCC2COC3(CCN(CCc4ccccc4)CC3)O2)s1 (centres unmarked) [Compound 4, 2-(2-chloro-5-thiazolyl)methoxymethyl-8-phenethyl-1,4-dioxa-8-azaspiro[4,5]decane]
- inhibition at 25 ppm (Rhizoctonia solani): 20 to 30%
- inhibition at 25 ppm (Colletotrichum capsici): 20 to 30%
- inhibition at 25 ppm (Fusarium oxysporum): 30 to 40%
- inhibition at 25 ppm (Pyrricularia oryzae): 30 to 40%
- inhibition against all the test pathogens [1]: 20-30%
